According to PubChem BioAssay AID624129 (Sanford-Burnham Center for Chemical Genomics, 2012):
The source made the active and inactive calls. The rule behind the calls is not given here.

Assays:
Test in all cases: potency against CXCR6 with APJ panel – cell-based, beta-arrestin, DiscoveRx, uHTS hits, dose response (AID 624129)
[1] = biological target: Apelin receptor (Homo sapiens) (UniProt P35414); conditions: CXCR6 beta-arrestin (DiscoveRx) antagonist cell assay, APJ
[2] = biological target: Beta-galactosidase (Escherichia coli) (UniProt Q8VNN2); conditions: CXCR6 beta-arrestin (DiscoveRx) antagonist cell assay, b-galactosidase
Sequence of Beta-galactosidase (Escherichia coli) (Q8VNN2 whole entry, looked up): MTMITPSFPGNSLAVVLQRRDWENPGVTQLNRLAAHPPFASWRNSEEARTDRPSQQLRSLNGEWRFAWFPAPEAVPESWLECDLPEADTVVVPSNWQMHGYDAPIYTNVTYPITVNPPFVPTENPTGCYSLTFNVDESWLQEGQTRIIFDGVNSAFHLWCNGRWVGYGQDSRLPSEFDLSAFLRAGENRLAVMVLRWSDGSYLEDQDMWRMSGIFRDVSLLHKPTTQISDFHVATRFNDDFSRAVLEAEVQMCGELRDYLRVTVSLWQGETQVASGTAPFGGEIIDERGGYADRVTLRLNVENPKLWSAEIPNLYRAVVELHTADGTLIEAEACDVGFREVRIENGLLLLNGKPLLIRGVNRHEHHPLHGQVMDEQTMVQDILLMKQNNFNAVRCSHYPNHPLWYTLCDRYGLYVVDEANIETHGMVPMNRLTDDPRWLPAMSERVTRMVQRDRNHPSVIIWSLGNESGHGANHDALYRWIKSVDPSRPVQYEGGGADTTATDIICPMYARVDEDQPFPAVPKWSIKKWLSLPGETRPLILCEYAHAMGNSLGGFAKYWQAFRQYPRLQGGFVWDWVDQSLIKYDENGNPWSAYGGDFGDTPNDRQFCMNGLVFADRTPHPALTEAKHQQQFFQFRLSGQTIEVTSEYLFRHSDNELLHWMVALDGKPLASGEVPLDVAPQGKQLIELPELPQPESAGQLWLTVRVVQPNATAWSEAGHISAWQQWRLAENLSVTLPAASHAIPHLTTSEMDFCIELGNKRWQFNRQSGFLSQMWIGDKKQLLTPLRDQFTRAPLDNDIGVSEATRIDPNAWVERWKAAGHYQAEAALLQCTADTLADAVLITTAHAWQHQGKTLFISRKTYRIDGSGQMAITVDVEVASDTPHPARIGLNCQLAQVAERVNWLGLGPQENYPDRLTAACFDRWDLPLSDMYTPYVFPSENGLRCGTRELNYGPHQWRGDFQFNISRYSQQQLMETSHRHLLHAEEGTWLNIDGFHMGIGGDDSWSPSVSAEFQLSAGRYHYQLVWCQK

[3] = biological target: C-C chemokine receptor type 6 (Homo sapiens) (UniProt P51684); conditions: CXCR6 beta-arrestin (DiscoveRx) antagonist cell assay
[4] = biological target: C-X-C chemokine receptor type 6 (Homo sapiens) (UniProt O00574); conditions: CXCR6 beta-arrestin (DiscoveRx) antagonist cell assay
Sequence of C-X-C chemokine receptor type 6 (Homo sapiens) (O00574 whole entry, looked up): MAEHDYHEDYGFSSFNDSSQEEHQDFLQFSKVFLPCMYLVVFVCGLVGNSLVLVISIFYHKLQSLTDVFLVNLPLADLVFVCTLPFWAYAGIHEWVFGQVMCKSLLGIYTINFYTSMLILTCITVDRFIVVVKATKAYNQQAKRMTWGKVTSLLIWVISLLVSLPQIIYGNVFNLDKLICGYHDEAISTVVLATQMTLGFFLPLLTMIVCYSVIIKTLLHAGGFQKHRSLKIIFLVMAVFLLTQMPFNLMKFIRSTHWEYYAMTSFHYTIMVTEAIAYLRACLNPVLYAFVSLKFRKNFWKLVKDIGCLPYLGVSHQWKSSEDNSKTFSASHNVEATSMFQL

[5] = dose range 1, mean IC50 across replicates
[6] = CCR6, dose range 1, mean IC50 across replicates
[7] = CXCR6, dose range 1, mean IC50 across replicates
[8] = CXCR6, run 1, dose range 2, at 80 µM (top of the series)
[9] = CXCR6, run 2, dose range 1, at 79 µM (top of the series)

Compound | IC50 [4, 7] [µM] | outcome ([4]; CXCR6, dose range 1) | IC50 ([4]; CXCR6, run 1, dose range 2) [µM] | inhibition [4, 9] [%] | IC50 ([4]; CXCR6, run 2, dose range 2) [µM] | also measured
O=C1C=CC(=O)N1Cc1ccccc1 | 8.3 | – | – | – | – | IC50 ([1]; dose range 1): 12 µM; IC50 [1, 5]: 11 µM; IC50 ([1]; run 2, dose range 1): 11.4 µM; IC50 ([1]; run 3, dose range 1): 9.67 µM; IC50 ([2]; dose range 1): > 80 µM (inactive); IC50 [2, 5]: > 80 µM; IC50 ([3]; CCR6, dose range 1): 6.91 µM; IC50 [3, 6]: 7.21 µM; IC50 ([3]; CCR6, run 2, dose range 1): 7.51 µM; IC50 ([4]; CXCR6, dose range 1): 10.8 µM; inhibition [4, 8]: 122%; IC50 ([4]; CXCR6, run 2, dose range 1): 5.84 µM
On1ccccc1=S | 17.8 | – | – | – | – | IC50 ([1]; dose range 1): 13.2 µM; IC50 [1, 5]: 17.6 µM; IC50 ([1]; run 2, dose range 1): 17.5 µM; IC50 ([1]; run 3, dose range 1): 22.2 µM; IC50 ([3]; CCR6, dose range 1): 11.5 µM; IC50 [3, 6]: 27 µM; IC50 ([3]; CCR6, run 2, dose range 1): 42.4 µM; activity value [4]: 80 µM (inactive); IC50 ([4]; CXCR6, dose range 1): inactive; inhibition [4, 8]: 51.2%; IC50 ([4]; CXCR6, run 2, dose range 1): 17.3 µM
COC(=O)C1=C(C(=O)OC)SC2(S1)C(C(=O)OC)=C(C(=O)OC)Sc1c2ssc1=O | 23.2 | inactive | 20.3 | 112 | 26 | –
C/C(=N\NC(=S)NCCc1ccccc1)c1ccc(Cl)cc1Cl | 11.8 | inactive | 12.4 | 39.5 | 11.1 | –
CS(=O)(=O)c1ccc(C(=O)OCC(=O)N2CCN(CCC3CCCCC3)CC2)cc1[N+](=O)[O-] | 11.2 | inactive | 10.6 | 111 | 11.8 | –
CN(CC(=O)Nc1cc(S(=O)(=O)N2CCCC2)ccc1Cl)Cc1cccs1 | 11.5 | inactive | 11.4 | 78.8 | 11.6 | –
Cc1ccc(OCC(=O)NNC(=S)NC(=O)C2CC2)c(C)c1 | 14.2 | inactive | 10.3 | 72.3 | 18.1 | –
COc1cc(/C=C/[N+](=O)[O-])ccc1OC(=O)c1cccnc1 | 25.5 | inactive | 19.1 | 108 | 31.9 | –
N#C/C(=C/c1ccc(-c2ccc([N+](=O)[O-])cc2)o1)C(=O)Nc1nc(-c2cccs2)cs1 | 38.1 | inactive | 44.7 | 90.2 | 31.5 | –
Cn1cnc([N+](=O)[O-])c1S(=O)(=O)c1ccc(Cl)cc1 | 13.9 | inactive | 14.5 | 110 | 13.3 | –
O=C(NC(=S)N(CCc1ccccc1)CCc1ccccc1)c1ccco1 | 26 | inactive | 8.84 | 68.8 | 43.2 | –
CCCCC(=O)NC(=S)Nc1ccccc1C(=O)Nc1ccccc1 | 11.4 | inactive | 10.5 | 79.2 | 12.3 | –
CCOc1ccc(Nc2ccc([N+](=O)[O-])c3nonc23)cc1 | 38.8 | inactive | 33.7 | 81.7 | 43.9 | –
Nc1ccccc1C#CC(=O)c1ccccc1 | 14.8 | inactive | 14.2 | 111 | 15.3 | –
Cc1ccc(O)c(C(=O)CC(=O)c2ccc(Cl)cc2)c1 | 13.7 | inactive | 10.8 | 91.8 | 16.5 | –
O=C(NC(=S)Nc1ccccc1O)c1cccnc1 | 30.3 | inactive | 30.3 | 58.4 | > 79 | –
C[n+]1ccc(/C=N/Nc2nc(Cl)c(C#N)c(Cl)c2Cl)cc1 | 44.8 | inactive | 23.6 | 90.5 | 66 | –
Cc1cccc(CS(=O)(=O)c2ncc(Cl)c(C(=O)NCc3ccccc3)n2)c1 | 13.1 | inactive | 11.5 | 112 | 14.7 | –
CN(C)CC1CC/C(=C\c2ccc(O)cc2)C1=O (stereo not given) | 14 | inactive | 14.3 | 111 | 13.8 | –
CS(=O)(=O)c1ncc(Cl)c(C(=O)Nc2ccc(OC(F)F)cc2)n1 | 13.3 | inactive | 12.4 | 113 | 14.2 | –
CCOc1ccc(/C=C/[N+](=O)[O-])c2ccccc12 | 17.2 | inactive | 17.3 | 109 | 17.1 | –

Compound | IC50 [4, 7] [µM] | outcome ([4]; CXCR6, dose range 1) | IC50 ([4]; CXCR6, run 1, dose range 2) [µM] | inhibition [4, 9] [%] | IC50 ([4]; CXCR6, run 2, dose range 2) [µM] | also measured
Cc1ccc(-n2c(SCCN)nnc2-c2cccc(C)c2)cc1 | 66.9 | inactive | 66.8 | 76.2 | 67 | –
COc1cc(C2C(C#N)=C(N)Oc3n[nH]c(-c4cccnc4)c32)cc(Br)c1O (stereo not given) | 28.7 | inactive | 24.6 | 86.6 | 32.8 | –
COC(=O)c1ccc(NC(=O)c2nc(S(=O)(=O)Cc3cccc(C)c3)ncc2Cl)cc1 | 16.3 | inactive | 15.4 | 107 | 17.2 | –
Cc1cccc(NC(=S)N/N=C/c2ccc([N+](=O)[O-])s2)c1 | 12.4 | inactive | 9.56 | 87.7 | 15.2 | –
COc1ccc(/C=C(/C(=O)c2cccs2)N2C=CC=CC2=C(C#N)C#N)cc1 | 19.9 | inactive | 20.3 | 109 | 19.5 | –
COc1cc(/C=C/C(=O)c2ccc(C)c([N+](=O)[O-])c2)cc(OC)c1O | 19.4 | inactive | 16.4 | 75.1 | 22.5 | –
Cc1ccc(P(=O)(c2ccc(C)cc2)[C@@H](NC(c2ccccc2)c2ccccc2)c2ccccc2)cc1 | 19.6 | inactive | 17 | 82.4 | 22.1 | –
O=C(NNC(=O)c1cc(-c2ccccc2)nn1-c1ccccc1)c1ccccc1 | 11.5 | inactive | 10.4 | 75 | 12.6 | –
CC1=C(C)CC2C(C1)C(=O)c1ccc(Br)cc1S2(=O)=O (stereo not given) | 30.5 | inactive | 37.3 | 50.8 | 23.7 | –
CC1=C(CO)C(=O)OC([C@@H](C)C2CC[C@H]3C4C[C@H]5O[C@]56[C@@H](O)C=CC(=O)[C@]6(C)C4CC[C@]23C)C1 (stereo not given in full) | 14 | inactive | 12.2 | 112 | 15.8 | –
CC(=O)OC1CCC2(C)C(CCC3C4CC=C(C(C)=O)C4(C)OC(=O)CC32)C1 (stereo not given) | 24.2 | inactive | 22.6 | 96.2 | 25.7 | –
CCOc1cc(/C=C2\N=C(SC)SC2=O)cc([N+](=O)[O-])c1OC(C)=O | 28.3 | inactive | 27.7 | 98.2 | 28.8 | –
Cc1cccc(Cc2cnc(N3C(=N)SC(C)C3=O)s2)c1 (stereo not given) | 7.79 | active | 7.79 | 41.4 | > 79 | –
COc1cccc2sc(N(CCCN(C)C)C(=O)CCS(=O)(=O)c3ccccc3)nc12 | 14.7 | inactive | 13.5 | 111 | 15.9 | –
COC(=O)/C=C\C(=O)Nc1cccc([N+](=O)[O-])c1 | 16.6 | inactive | 18 | 111 | 15.2 | –
Cc1ccc(NC(=S)NNc2ncc(C(F)(F)F)cc2Cl)cc1 | 13.5 | inactive | 10.4 | 105 | 16.6 | –
CC(Oc1ccccc1)C(=O)Nc1nc(-c2ccccn2)cs1 (stereo not given) | 14.3 | inactive | 11.4 | 97.6 | 17.3 | –
O=[N+]([O-])/C=C/c1ccc2c(ccn2Cc2ccccc2)c1 | 11.3 | inactive | 9.06 | 111 | 13.5 | –
O=C(NCc1ccc2c(c1)OCO2)c1nc(S(=O)(=O)Cc2ccccc2F)ncc1Cl | 16.3 | inactive | 15.6 | 111 | 17 | –
C=CC[C@H](CC(=O)N(CCO)Cc1ccccc1)C(=O)NC[C@H](OC(=O)[C@@H](CC=C)CC(=O)OC(C)(C)C)c1ccccc1 | 31 | inactive | 33.1 | 76.8 | 29 | –
